Test results from ChEMBL document CHEMBL4808186, “Structure-Based Discovery of Pyrimidine Aminobenzene Derivatives as Potent Oral Reversal Agents against P-gp- and BCRP-Mediated Multidrug Resistance” (J Med Chem, 2021).
Active and inactive are the calls of the source. The rule behind the calls is not given here.

Tests used:
K562/A02 [1] = assay: Potentiation of adriamycin-induced apoptosis in human K562/A02 cells assessed as necrotic cells at 10 uM incubated for 48 hrs in presence of 10 uM adriamycin by Annexin-V/FITC-based flow cytometry (reference value: 0.3%); assay type: functional
K562/A02 [2] = assay: Potentiation of adriamycin-induced apoptosis in human K562/A02 cells assessed as necrotic cells at 0.5 uM incubated for 48 hrs in presence of 10 uM adriamycin by Annexin-V/FITC-based flow cytometry (reference value: 0.3%); assay type: functional
K562/A02 [3] = assay: Cytotoxicity against P-gp overexpressing human K562/A02 cells incubated for 48 hrs by MTT assay; assay type: functional, cell-based; settings: K562/A02, 48 h, read-out: IC50
[4] = molecular target: T1, ATP-dependent translocase ABCB1 (Homo sapiens, UniProt P08183); assay: Inhibition of P-gp-mediated multidrug resistance in human K562/A02 cells assessed as Adriamycin accumulation pretreated 1 hr followed by treated with adriamycin measured after 180 mins by flow cytometry; assay type: cell-based; settings: k562/a02, 4 h, time 240 min
K562/A02 [5] = assay: Potentiation of adriamycin-induced apoptosis in human K562/A02 cells assessed as late apoptotic cells at 5 uM incubated for 48 hrs in presence of 10 uM adriamycin by Annexin-V/FITC-based flow cytometry (reference value: 0.4%); assay type: functional
[6] = Toxicity in BALB/c mouse xenografted with human K562/A02 cells assessed as degeneration and necrosis of liver tissue at 4 mg/kg, iv once every 2 days for 14 days in presence of 2 mg/kg adriamycin by HE staining; assay type: organism-based; settings: in vivo, 48 h, time 2 day
K562/A02 [7] = assay: Antitumor activity against human K562/A02 cells xenografted in BALB/c mouse assessed as reduction in tumor size at 4 mg/kg, iv once every 2 days for 14 days in presence of 2 mg/kg adriamycin; assay type: functional, organism-based; settings: time 2.0 day
[8] = molecular target: T1, ATP-dependent translocase ABCB1; assay: Inhibition of P-gp-mediated multidrug resistance in human K562/A02 cells assessed as Adriamycin accumulation at 1 to 10 uM pretreated 1 hr followed by treated with adriamycin measured after 180 mins by fluorescence microscopy; assay type: cell-based; settings: k562/a02, 4 h, dose 1-10 µM, time 240 min
K562/A02 [9] = assay: Antitumor activity against human K562/A02 cells xenografted in BALB/c mouse assessed as reduction in tumor volume at 4 mg/kg, iv once every 2 days for 14 days in presence of 2 mg/kg adriamycin; assay type: functional, organism-based; settings: time 2.0 day
[10] = molecular target: T1, ATP-dependent translocase ABCB1; assay: Inhibition of P-gp-mediated multidrug resistance in human K562/A02 cells assessed as suppression of Rh123 efflux at 10 uM treated after 90 mins of Rh123 treatment measure up to 120 mins by flow cytometry; assay type: cell-based; settings: k562/a02, 10 µM
MDCK-II [11] = assay: cells; settings: Canis lupus familiaris, 48 h
Description: Cytotoxicity against MDCK-II cells incubated for 48 hrs by MTT assay

[12] = n-Octanol/water partition coefficient, logP of the compound by UHPLC analysis; assay type: physicochemical
K562/A02 [13] = assay: Potentiation of adriamycin-induced apoptosis in human K562/A02 cells assessed as early apoptotic cells at 5 uM incubated for 48 hrs in presence of 10 uM adriamycin by Annexin-V/FITC-based flow cytometry (reference value: 2.9%); assay type: functional
K562/A02 [14] = assay: Antitumor activity against human K562/A02 cells xenografted in BALB/c mouse assessed as reduction in tumor weight at 4 mg/kg, iv once every 2 days for 14 days in presence of 2 mg/kg adriamycin; assay type: functional, organism-based; settings: time 2.0 day
K562/A02 [15] = assay: Potentiation of adriamycin-induced apoptosis in human K562/A02 cells assessed as viable cells at 0.5 uM incubated for 48 hrs in presence of 10 uM adriamycin by Annexin-V/FITC-based flow cytometry (reference value: 96.5%); assay type: functional; settings: read-out: Activity
K562/A02 [16] = assay: Potentiation of adriamycin-induced apoptosis in human K562/A02 cells assessed as necrotic cells at 5 uM incubated for 48 hrs in presence of 10 uM adriamycin by Annexin-V/FITC-based flow cytometry (reference value: 0.3%); assay type: functional
MDCK-II [17] = assay: Inhibition of BCRP-mediated multidrug resistance in MDCK-II cells assessed as mitoxantrone accumulation […] pretreated 1 hr followed by treated with mitoxantrone measured after 180 mins by fluorescence microscopy; assay type: cell-based; settings: Canis lupus familiaris, time 240.0 min
K562/A02 [18] = assay: Antitumor activity against human K562/A02 cells xenografted in BALB/c mouse assessed as degeneration and necrosis of tumor tissue at 4 mg/kg, iv single dose in presence of 2 mg/kg adriamycin by HE staining; assay type: functional, organism-based
K562/A02 [19] = assay: Potentiation of adriamycin-induced apoptosis in human K562/A02 cells assessed as viable cells at 10 uM incubated for 48 hrs in presence of 10 uM adriamycin by Annexin-V/FITC-based flow cytometry (reference value: 96.5%); assay type: functional; settings: read-out: Activity
K562/A02 [20] = assay: Potentiation of adriamycin-induced apoptosis in human K562/A02 cells assessed as viable cells at 5 uM incubated for 48 hrs in presence of 10 uM adriamycin by Annexin-V/FITC-based flow cytometry (reference value: 96.5%); assay type: functional; settings: read-out: Activity
MDCK-II [21] = assay: Inhibition of BCRP-mediated multidrug resistance in MDCK-II cells assessed as mitoxantrone accumulation at 0.1 to 5 uM pretreated 1 hr followed by treated with mitoxantrone measured after 180 mins by flow cytometry; assay type: cell-based; settings: Canis lupus familiaris, dose 0.1-5 µM, time 240.0 min
MDCK-II [22] = assay: cells; settings: Canis lupus familiaris, 48 h; remark: listed apart in the source
Description: Cytotoxicity against BCRP-overexpressing MDCK-II cells incubated for 48 hrs by MTT assay

K562/A02 [23] = assay: Potentiation of adriamycin-induced apoptosis in human K562/A02 cells assessed as early apoptotic cells at 10 uM incubated for 48 hrs in presence of 10 uM adriamycin by Annexin-V/FITC-based flow cytometry (reference value: 2.9%); assay type: functional
[24] = Toxicity in BALB/c mouse xenografted with human K562/A02 cells assessed as degeneration and necrosis of kidney tissue at 4 mg/kg, iv once every 2 days for 14 days in presence of 2 mg/kg adriamycin by HE staining; assay type: organism-based; settings: in vivo, 48 h, time 2 day
MDCK-II [25] = assay: Effect on BCRP expression in MDCK-II cells at 1 to 10 uM incubated for 48 hrs by Western blot analysis; assay type: functional, cell-based; settings: Canis lupus familiaris, dose 1-10 µM
K562/A02 [26] = assay: Effect on P-gp expression in human K562/A02 cells at 1 to 10 uM incubated for 48 hrs by Western blot analysis; assay type: functional, cell-based; settings: dose 1-10 µM
K562/A02 [27] = assay: Potentiation of adriamycin-induced apoptosis in human K562/A02 cells assessed as late apoptotic cells at 10 uM incubated for 48 hrs in presence of 10 uM adriamycin by Annexin-V/FITC-based flow cytometry (reference value: 0.4%); assay type: functional
K562/A02 [28] = assay: Potentiation of adriamycin-induced apoptosis in human K562/A02 cells assessed as late apoptotic cells at 0.5 uM incubated for 48 hrs in presence of 10 uM adriamycin by Annexin-V/FITC-based flow cytometry (reference value: 0.4%); assay type: functional
K562/A02 [29] = assay: Potentiation of adriamycin-induced apoptosis in human K562/A02 cells assessed as early apoptotic cells at 0.5 uM incubated for 48 hrs in presence of 10 uM adriamycin by Annexin-V/FITC-based flow cytometry (reference value: 2.9%); assay type: functional
K562 = assay: Cytotoxicity against human K562 cells incubated for 48 hrs by MTT assay; assay type: functional, cell-based; settings: K562, 48 h

T1 sequence (P08183 whole entry): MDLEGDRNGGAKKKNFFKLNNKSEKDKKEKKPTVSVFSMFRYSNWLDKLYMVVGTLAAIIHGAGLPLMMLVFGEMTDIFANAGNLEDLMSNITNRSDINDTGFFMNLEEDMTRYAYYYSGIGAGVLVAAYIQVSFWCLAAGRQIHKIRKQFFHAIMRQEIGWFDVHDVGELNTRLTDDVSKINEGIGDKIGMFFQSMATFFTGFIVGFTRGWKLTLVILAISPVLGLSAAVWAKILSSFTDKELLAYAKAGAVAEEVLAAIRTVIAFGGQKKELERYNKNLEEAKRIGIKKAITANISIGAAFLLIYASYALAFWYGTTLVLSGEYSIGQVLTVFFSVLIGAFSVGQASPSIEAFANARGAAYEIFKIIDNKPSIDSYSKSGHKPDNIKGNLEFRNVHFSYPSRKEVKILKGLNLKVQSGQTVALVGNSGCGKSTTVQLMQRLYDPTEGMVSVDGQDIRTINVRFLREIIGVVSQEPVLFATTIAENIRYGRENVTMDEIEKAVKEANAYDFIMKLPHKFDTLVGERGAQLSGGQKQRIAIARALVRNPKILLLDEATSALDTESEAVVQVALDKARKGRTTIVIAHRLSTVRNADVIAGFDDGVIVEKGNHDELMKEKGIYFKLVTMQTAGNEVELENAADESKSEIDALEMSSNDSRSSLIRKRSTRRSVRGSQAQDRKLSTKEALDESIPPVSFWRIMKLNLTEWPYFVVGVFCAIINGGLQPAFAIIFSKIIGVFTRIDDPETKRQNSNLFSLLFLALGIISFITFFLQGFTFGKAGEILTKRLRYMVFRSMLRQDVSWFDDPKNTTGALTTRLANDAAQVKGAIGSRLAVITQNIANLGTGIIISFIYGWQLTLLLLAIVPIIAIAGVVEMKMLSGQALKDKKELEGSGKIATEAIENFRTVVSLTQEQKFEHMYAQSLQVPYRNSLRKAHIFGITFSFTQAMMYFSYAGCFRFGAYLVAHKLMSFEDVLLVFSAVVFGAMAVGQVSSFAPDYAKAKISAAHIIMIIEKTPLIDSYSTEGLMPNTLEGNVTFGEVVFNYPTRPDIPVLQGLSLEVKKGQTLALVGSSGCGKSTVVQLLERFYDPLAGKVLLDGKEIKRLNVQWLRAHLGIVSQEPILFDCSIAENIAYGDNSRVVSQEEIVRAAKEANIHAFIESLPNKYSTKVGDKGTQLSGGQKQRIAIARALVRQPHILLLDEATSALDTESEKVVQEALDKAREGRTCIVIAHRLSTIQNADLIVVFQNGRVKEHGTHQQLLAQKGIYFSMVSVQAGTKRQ

With `COc1cc2c(cc1OC)CN(CCNC(=O)c1ccc(C)c(Nc3nccc(-c4ccco4)n3)c1)CC2` as the compound, how does the Activity (K562/A02 [1]) read?
Its Activity is 2.5%.

What about the Activity (K562/A02 [2]) of the same compound?
Its Activity is 1.1%.

And the IC50 (K562/A02 [3])?
Its IC50 is > 100 µM.

And the Activity [4]?
The Activity was “Dose-Dependent Effect”.

What about the Activity (K562/A02 [5]) of the same compound?
Its Activity is 9.2%.

And the Activity [6]?
The Activity was “Non-Toxic”.

And the Activity (K562/A02 [7])?
Its Activity is “Active”.

What about the Activity [8] of the same compound?
Its Activity is “Active”.

And the Activity (K562/A02 [9])?
The Activity was “Active”.

And the Activity [10]?
Its Activity is “Active”.

And the IC50 (MDCK-II [11])?
The IC50 was > 100 µM.

And the logP [12]?
Its logP is 2.13.

And the Activity (K562/A02 [13])?
The Activity was 12.3%.

What about the Activity (K562/A02 [14]) of the same compound?
Its Activity is “Active”.

What about the viability at 0.5 µM (K562/A02 [15]) of the same compound?
Its viability at 0.5 µM is 84.8%.

What about the Activity (K562/A02 [16]) of the same compound?
The Activity was 2.4%.

What about the Activity (MDCK-II [17]) of the same compound?
Its Activity is “Active”.

What about the Activity (K562/A02 [18]) of the same compound?
Its Activity is “Active”.

What about the viability at 10 µM (K562/A02 [19]) of the same compound?
Its viability at 10 µM is 68.3%.

And the viability at 5 µM (K562/A02 [20])?
Its viability at 5 µM is 76.2%.

And the Activity (MDCK-II [21])?
The Activity was “Active”.

And the IC50 (MDCK-II [22])?
The IC50 was > 100 µM.

What about the Activity (K562/A02 [23]) of the same compound?
The Activity was 19.3%.

What about the Activity [24] of the same compound?
The Activity was “Non-Toxic”.

What about the Activity (MDCK-II [25]) of the same compound?
The Activity was “inactive”.

And the Activity (K562/A02 [26])?
The Activity was “inactive”.

What about the Activity (K562/A02 [27]) of the same compound?
The Activity was 9.8%.

And the Activity (K562/A02 [28])?
The Activity was 3.2%.

What about the Activity (K562/A02 [29]) of the same compound?
Its Activity is 10.9%.

And the IC50 (K562)?
The IC50 was > 100 µM.
